According to patent publication US10016382B2, “Method for decreasing skeletal muscle damage and/or oxidative stress in mammals” (LONZA INC., priority 2014, dated 2018):
“And” between values parts separate entries of the source, which are not always exact repeats. Equal entries are not always repeated.

Assays:
[1] = system: Labrador Retrievers; assay: Activity by Actical monitors, short (sprint) runs, Example 1; format: in vivo, dog; details: Ex.1, 250 mg/d; for Activity short runs, Least Sq Mean: average of weekly short runs over 13 wk, mixed model
Text: Each test dog wore an Actical activity monitor from Philips Respironics on a collar for the short higher intensity runs and also wore an Actical activity monitor for the weekly longer endurance runs. The activity data was downloaded into spread sheets along with each dogs identity. Twenty four hours after each long run during the 13 wk running program each of the dogs were scored by kennel staff for soreness or any type of lameness The exercise program was decreased in a tapering program during wk 11 and 12 to allow the dogs to rest for the final long run completed on wk 13. Pre-run serum samples from each test dog was taken 24 hr before the last endurance run. The heart rate and basal body temperature was determined for each test dog prior to the last long endurance run. Exercise Regimen: Each group of dogs were put through two different types of exercise programs on a weekly basis. The exercise regimen consisted of both sprint (short runs) and endurance (long runs) type work during the 90 day period. Each group of dogs were put through a simulated amount of work that would be equal to competing in an AKC Junior Hunt Test (American […] Club) and also once a week the dogs were put through a simulated endurance run. Each group of test dogs ran the AKC Hunt Test workout 26 times during the 13 wk study which was 2 times per week. During each week, each group ran the test 2 times with 1 day rest between runs. The AKC Hunt Test workout during the initial week amounted to two days of 6 consecutive sprint type retrieves for a minimum of 100 yd each way making a total of 1200 yd per day or 2400 yd per wk. The dogs brought back a bumper (equivalent to a duck or mark) to the handler during the exercise. […] The length of time involved in the intense exercise simulating the AKC Hunt Test was approximately 10 to 15 minutes per dog each of the short run days and was equal for both treatments. The rest time between retrieves (sprints) in a set during the simulated weekly AKC Hunt Test was equal for all dogs. Performance and Recovery Time: An Actical monitor (Philips Respironics) was worn around the neck of each dog on a collar and utilized to evaluate the amount of movement (measured total movements and intensity) for each dog for the purpose of evaluating equal work between treatments and also to evaluate the individual work intensity while completing the daily retrieves. Each dog wore the Actical monitor for each long run and wore the Actical monitor for the final 15 mile run. The Actical monitor data was downloaded to a computer for evaluation. Statistical Methods: GraphPad Prism 6.0 was used to compare means between groups for run time, food intake, body weight, and changes in blood chemistry using an unpaired t-test. Results were considered significant if a p-value of 0.05 was obtained. JMP 10.0.2 was used to create a mixed model for long runs, short runs, body composition, and blood chemistry.

[2] = system: canine myoglobin; assay: Serum canine myoglobin, Example 2 part one; format: in vivo, dog; details: for Serum myoglobin: Ex.2 part one, 250 mg/d; for Myoglobin: serum
Experimental: Twenty-four hours after test dogs ran the last 15 mile endurance run, serum samples were taken to evaluate biomarkers for muscle damage and antioxidant status. Blood samples were taken 1) just prior to the beginning of the study; 2) 1 day prior to running the final 15 mile run on the 14th week; 3) 1 hour immediately following the 15 mile run; and 4) 24 hours following the final 15 mile run. After a blood sample was drawn, it was allowed to clot for 30 minutes at 25° C. before being centrifuged for 15 minutes at 2000 g at 4° C. Serum was aliquoted into 0.65 mL microcentrifuge tubes and stored at −80° C. until being assayed at the end of the study for creatine kinase, canine myoglobin, thiobarbituric acid reactive substances (TBARS), and total antioxidant capacity (TAC) using the commercially available kits described in Example 1.

C[N+](C)(C)C[C@H](O)CC(=O)[O-] [L-carnitine]
Activity short runs, APM/lb Mean ([1]; Week 3, both sexes): 1479 Movements/Mile/LB BW
Activity short runs, APM/lb Mean ([1]; Week 3, females): 1636 Movements/Mile/LB BW
Activity short runs, APM/lb Mean ([1]; Week 3, males): 1338 Movements/Mile/LB BW
Activity short runs, APM/lb Mean ([1]; Week 4, both sexes): 1402 Movements/Mile/LB BW
Activity short runs, APM/lb Mean ([1]; Week 4, females): 1608 Movements/Mile/LB BW
Activity short runs, APM/lb Mean ([1]; Week 4, males): 1234 Movements/Mile/LB BW
Activity short runs, APM/lb Mean ([1]; Week 5, both sexes): 1314 Movements/Mile/LB BW
Activity short runs, APM/lb Mean ([1]; Week 5, females): 1362 Movements/Mile/LB BW
Activity short runs, APM/lb Mean ([1]; Week 5, males): 1275 Movements/Mile/LB BW
Activity short runs, APM/lb Mean ([1]; Week 6, both sexes): 1375 Movements/Mile/LB BW
Activity short runs, APM/lb Mean ([1]; Week 6, females): 1340 Movements/Mile/LB BW
Activity short runs, APM/lb Mean ([1]; Week 6, males): 1403 Movements/Mile/LB BW
Activity short runs, APM/lb Mean ([1]; Week 7, both sexes): 1380 Movements/Mile/LB BW
Activity short runs, APM/lb Mean ([1]; Week 7, females): 1347 Movements/Mile/LB BW
Activity short runs, APM/lb Mean ([1]; Week 7, males): 1407 Movements/Mile/LB BW
Activity short runs, APM/lb Mean ([1]; Week 8, both sexes): 1249 Movements/Mile/LB BW
Activity short runs, APM/lb Mean ([1]; Week 8, females): 1330 Movements/Mile/LB BW
Activity short runs, APM/lb Mean ([1]; Week 8, males): 1183 Movements/Mile/LB BW
Activity short runs, APM/lb Mean ([1]; Week 9, both sexes): 1234 Movements/Mile/LB BW
Activity short runs, APM/lb Mean ([1]; Week 9, females): 1388 Movements/Mile/LB BW
Activity short runs, APM/lb Mean ([1]; Week 9, males): 1108 Movements/Mile/LB BW
Activity short runs, APM/lb Mean ([1]; Week 10, both sexes): 1114 Movements/Mile/LB BW
Activity short runs, APM/lb Mean ([1]; Week 10, females): 1222 Movements/Mile/LB BW
Activity short runs, APM/lb Mean ([1]; Week 10, males): 1026 Movements/Mile/LB BW
Activity short runs, APM/lb Mean ([1]; Week 11, both sexes): 1111 Movements/Mile/LB BW
Activity short runs, APM/lb Mean ([1]; Week 11, females): 1128 Movements/Mile/LB BW
Activity short runs, APM/lb Mean ([1]; Week 11, males): 1098 Movements/Mile/LB BW
Activity short runs, APM/lb Mean ([1]; Week 12, both sexes): 2500 Movements/Mile/LB BW
Activity short runs, APM/lb Mean ([1]; Week 12, females): 2804 Movements/Mile/LB BW
Activity short runs, APM/lb Mean ([1]; Week 12, males): 2251 Movements/Mile/LB BW
Activity short runs, APM/lb Mean ([1]; Week 13, both sexes): 1741 Movements/Mile/LB BW
Activity short runs, APM/lb Mean ([1]; Week 13, females): 1661 Movements/Mile/LB BW
Activity short runs, APM/lb Mean ([1]; Week 13, males): 1806 Movements/Mile/LB BW
Activity short runs, Least Sq Mean ([1]; both sexes): 1451 Movements/Mile/LB BW and 1451.0357 Movements/Mile/LB BW
Activity short runs, Least Sq Mean ([1]; females): 1522 Movements/Mile/LB BW and 1528.6226 Movements/Mile/LB BW
Activity short runs, Least Sq Mean ([1]; males): 1373.4487 Movements/Mile/LB BW
Serum myoglobin ([2]; post-run 1 hour): 23.83 ng/mL
Serum myoglobin ([2]; post-run 24 hour): 9.25 ng/mL
Myoglobin ([2]; FEMALES, Baseline): 17.33 ± 4.7 ng/mL
Myoglobin ([2]; FEMALES, Post-Run 1 Hr): 25.19 ± 4.25 ng/mL
Myoglobin ([2]; FEMALES, Post-Run 24 Hr): 8.08 ± 2.83 ng/mL
Myoglobin ([2]; FEMALES, Pre-Run): 4.88 ± 1.24 ng/mL
Myoglobin ([2]; MALES, Baseline): 22.22 ± 6.92 ng/mL
Myoglobin ([2]; MALES, Post-Run 1 Hr): 22.46 ± 4.41 ng/mL
Myoglobin ([2]; MALES, Post-Run 24 Hr): 4.41 ± 0.64 ng/mL
Myoglobin ([2]; MALES, Pre-Run): 8.69 ± 3.25 ng/mL
Myoglobin ([2]; Whole Groups, Baseline): 19.78 ± 4.13 ng/mL
Myoglobin ([2]; Whole Groups, Post-Run 1 Hr, Post-Run 1 Hr): 23.83 ± 3.02 ng/mL
Myoglobin ([2]; Whole Groups, Post-Run 24 Hr, Post-Run 24 Hr): 6.25 ± 1.47 ng/mL
Myoglobin ([2]; Whole Groups, Pre-Run): 6.78 ± 1.74 ng/mL
